The text below walks through data of US20080293699A1, “Inhibitors of thapsigargin-induced cell death” (priority 2007, published 2008).

The experiment has as its target T1, ASK1 (Homo sapiens, UniProt Q99683).
T1 construct: expressed in transfected cells; host or cells: HEK293T
T1 sequence (Q99683 1-1374): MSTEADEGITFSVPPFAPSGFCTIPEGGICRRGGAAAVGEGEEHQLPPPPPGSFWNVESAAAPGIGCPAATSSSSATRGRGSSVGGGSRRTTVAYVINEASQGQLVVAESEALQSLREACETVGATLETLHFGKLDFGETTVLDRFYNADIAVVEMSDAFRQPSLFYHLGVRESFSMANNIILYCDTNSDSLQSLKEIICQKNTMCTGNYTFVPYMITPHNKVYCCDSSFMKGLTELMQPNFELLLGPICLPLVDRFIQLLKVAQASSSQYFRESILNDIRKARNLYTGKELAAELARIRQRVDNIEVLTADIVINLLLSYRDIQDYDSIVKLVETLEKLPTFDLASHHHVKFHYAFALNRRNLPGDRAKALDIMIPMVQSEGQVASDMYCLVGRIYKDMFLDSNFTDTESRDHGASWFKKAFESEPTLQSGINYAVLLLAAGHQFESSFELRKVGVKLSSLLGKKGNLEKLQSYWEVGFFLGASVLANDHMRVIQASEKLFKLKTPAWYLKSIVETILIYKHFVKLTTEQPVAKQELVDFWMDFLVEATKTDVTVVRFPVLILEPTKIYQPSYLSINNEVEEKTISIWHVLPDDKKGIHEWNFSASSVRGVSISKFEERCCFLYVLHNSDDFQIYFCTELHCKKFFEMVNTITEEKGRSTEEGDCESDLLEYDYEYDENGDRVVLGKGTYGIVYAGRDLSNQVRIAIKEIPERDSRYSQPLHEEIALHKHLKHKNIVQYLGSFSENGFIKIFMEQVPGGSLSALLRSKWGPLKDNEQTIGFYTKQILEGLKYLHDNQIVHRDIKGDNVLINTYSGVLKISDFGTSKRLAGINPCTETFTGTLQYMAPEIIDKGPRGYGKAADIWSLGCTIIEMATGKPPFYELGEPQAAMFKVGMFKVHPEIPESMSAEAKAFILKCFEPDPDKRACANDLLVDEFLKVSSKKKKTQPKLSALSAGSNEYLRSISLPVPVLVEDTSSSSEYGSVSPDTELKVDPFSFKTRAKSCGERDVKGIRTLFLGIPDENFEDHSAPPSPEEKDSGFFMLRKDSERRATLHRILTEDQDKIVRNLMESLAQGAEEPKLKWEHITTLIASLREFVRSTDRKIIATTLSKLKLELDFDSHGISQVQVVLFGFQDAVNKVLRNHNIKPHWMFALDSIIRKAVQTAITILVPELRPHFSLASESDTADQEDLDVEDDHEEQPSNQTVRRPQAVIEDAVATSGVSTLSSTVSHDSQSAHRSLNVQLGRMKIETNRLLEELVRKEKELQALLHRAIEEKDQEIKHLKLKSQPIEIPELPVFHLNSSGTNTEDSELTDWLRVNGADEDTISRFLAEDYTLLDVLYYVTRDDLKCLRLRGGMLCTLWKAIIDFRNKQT
Description: ASK1-MKK6-p38 coupled in vitro kinase assay. In kind it is biochemical. On the procedure:
Suppression of thapsigargin-induced phosphorylation of p38MAPK was also measured by a quantitative ELISA-methods, with IC50 for p38MAPK phosphorylation estimated at <5 μM. In contrast, thapsigargin-induced expression of CHOP, expression of ATF4, proteolytic processing of ATF6, phosphorylation of eIF2a (Ser 51), auto-phosphorylation of Ire1a or auto-phosphorylation of ASK1 were not inhibited directly by CID-2878746 at concentrations up to 50 μM tested by in vitro kinase assay using p32-γ-ATP substrate. […] Thapsigargin-induced reductions in phosphorylation of ASK1 at the serine 967 site in ASK1 transfected 293T cells are inhibited by compound 5962123 at concentrations of 50-100 μM, as determined by immunoblotting using anti-phospho-specific (ser 967) antibody, but thapsigargin-induced changes in phosphorylation of ASK1 at ser 83 and thr 845 are not modulated by compound 5962123 at concentrations as high as 100 μM in ASK1-transfected HEK293T cells.
C-Jun and p38 MAPK work downstream of the Ire1 pathway (see FIG. 21), we tested whether one of our hit compounds (6239507) inhibits autophosphorylation of any of kinases in this Ire1-ASK1-JNK/p38 MAPK pathway. […] An Ire1 autophosphorylation assay was performed. […] Incorporation values of ^32P-γ-ATP were evaluated by a scintillation counter. […] Incorporation values of ^32P-γ-ATP were evaluated by a scintillation counter. […]

As for `CCN(CC)c1ccc(C2Nc3ccccc3NC3=C2C(=O)CC(c2ccccc2)C3)cc1` (centres unmarked) [Compound 5962123, 6-(4-diethylaminophenyl)-9-phenyl-5,6,8,9,10,11-hexahydrobenzo[c][1,5]benzodiazepin-7-one], the “Thapsigargin-induced activation of ASK1 in cells” value (coupled assay with MKK6 and p38MAPK, ASK1 immunoprecipitated from compound-treated (100 μM) HEK293T cells) is “failed to inhibit”. Take `COc1ccc(C2CC(=O)C3=C(C2)Nc2ccccc2NC3c2cccc(Oc3ccccc3)c2)cc1OC` (centres unmarked) [Compound 6239507]: the “Ask1's activity with respect to downstream kinases MKK6 and p38 MAPK” value (kinases incubated with 50 μM compound in vitro) is “does not modulate”.
